Assay [1] addresses T1, human plasmin (Homo sapiens, UniProt P00747). Briefly: biochemical. Conditions: read-out: Plasmin S-2251 (I50). The protocol:
An inhibitor sample is dissolved in a 0.05M Tris-hydrochloric acid buffer solution (pH=7.4) to make the total volume of 400 μl. […] Then, 50 μl of a 0.2 casein unit/ml human plasmin is added and the mixture is incubated at a temperature of 37° C. for 4 minutes. Thereafter, the reaction is stopped by adding 50 μl of 50% acetic acid.
Thus, the concentration I50 (μmol) of the inhibitor sample, at which the absorbance is one half (i.e., 1/2) of that obtained in the absence of the inhibitor, is determined.

The target of assay [2] is T1, human plasmin. Briefly: Antiplasmin activity: inhibition of fibrin decomposition. Particulars: read-out: Plasmin Fibrin (I50). Type of assay: biochemical. The procedure: (i) Determination of inhibition activity for fibrin decomposition
An inhibitor sample is dissolved in a 0.18M borate-physiological salt buffer solution (pH=7.4) to make the total volume to 600 μl. To this buffer solution, 200 μl of a 0.2% bovine fibrinogen, 100 μl of a 0.3 casein unit/ml human plasmin solution, and 100 μl of a 50 unit/ml bovine thrombin solution, all dissolved in the above-mentioned buffer, are added at a temperature of 37° C. in a constant temperature bath. Then, the dissolution time of the fibrin mass formed above is determined.

The target of assay [3] is T2, bovine thrombin (Bos taurus, UniProt P00735). Put plainly: Antithrombin activity: inhibition of S-2238 decomposition. It counts as biochemical. Particulars: S-2238 substrate, read-out: Thrombin S-2238 (I50). The procedure:
(ii) Determination of inhibition activity for S-2238 decomposition
An inhibitor sample is dissolved in a 0.05M Tris-hydrochloric acid buffer solution (pH=8.3) to make a total volume of 400 μl. To this solution, 50 μl of a 0.2 mM S-2238 solution is added and the mixture is incubated at a temperature of 37° C. for 5 minutes in a constant temperature bath. Then, 50 μl of a 0.2 unit/ml bovine thrombin solution is added thereto and the absorbance, at 405 nm, of the p-nitroaniline formed per minute is determined at a temperature of 37° C. by using the so-called initial velocity method. Thus, the concentration I50 (μmol) of the inhibitor sample at which the absorbance is one half (i.e., 1/2) of that obtained in the absence of the inhibitor sample, is determined.

The target in assay [4] is T2, bovine thrombin. Put plainly: Antithrombin activity: inhibition of fibrin formation from fibrinogen. Type of assay: biochemical. The protocol: (i) Determination of inhibition activity against fibrin formation
An inhibitor sample is dissolved in a 0.18M borate-physiological salt buffer solution (pH=7.4) to make the total volume to 500 μl. To this solution, 400 μl of a 0.2% bovine fibrinogen solution and 100 μl of a 4 unit/ml bovine thrombin solution are added at a temperature of 37° C. in a constant temperature bath. Thus, a coagulation time is determined. The inhibitor concentration I50 (μmol), at which the coagulation time obtained in the absence of the inhibitor is extended twice, is determined.

Assay [5] addresses T3, bovine trypsin (Bos taurus, UniProt P00760).
T3 sequence (P00760 24-246): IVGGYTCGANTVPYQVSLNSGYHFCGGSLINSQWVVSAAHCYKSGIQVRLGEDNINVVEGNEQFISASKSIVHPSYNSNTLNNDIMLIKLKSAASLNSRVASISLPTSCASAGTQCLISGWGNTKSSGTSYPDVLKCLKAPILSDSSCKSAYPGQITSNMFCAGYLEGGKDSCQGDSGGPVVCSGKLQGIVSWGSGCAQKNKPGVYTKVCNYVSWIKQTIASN
Put plainly: Antitrypsin activity: inhibition of S-2238 decomposition. Type of assay: biochemical.

Assay [6] concerns the target human plasma kallikrein (Homo sapiens, UniProt P03952). Briefly: Anti-plasma kallikrein activity: inhibition of S-2302 decomposition. It counts as biochemical.
The target of assay [7] is human urokinase (Homo sapiens, UniProt P00749). Briefly: biochemical. The procedure:
Determination of inhibition activity for S-2444 decomposition
An inhibitor sample is dissolved in a 0.05M Tris-hydrochloric acid buffer solution (pH=8.8) to make the total volume to 400 μl. To this solution, 50 μl of a 1 mM S-2444 solution is added and the mixture is incubated at a temperature of 37° C. for 5 minutes in a constant temperature bath. Then, 50 μl of a 500 unit/ml human urokinase is added and the mixture is incubated at a temperature of 37° C. for 5 minutes. Thereafter, 50 μl of 50% acetic acid is added to terminate the reaction. The absorbance of the p-nitroaniline formed in the reaction mixture is measured at 405 nm. Thus, the concentration I50 (μmol) of the inhibitor sample, at which the absorbance is one half (i.e., 1/2) of that obtained in the absence of the inhibitor sample, is determined.

Where [8] appears, read: Table 2, concentration at which fibrin dissolution time is extended twice, pH 7.4, 37° C.
[9] abbreviates: Table 2, S-2238 substrate, pH 8.1, 37° C., read-out: Trypsin S-2238 (I50).
The mark [10] stands for this setting: Table 2, S-2302 substrate, pH 7.8, 37° C., read-out: Plasma Kallikrein S-2302 (I50).
Setting [11] is: Table 2, S-2444 substrate, pH 8.8, 37° C., read-out: Urokinase S-2444 (I50).
The mark [12] stands for this setting: Table 4, comparative compounds of Table 3, S-2251 substrate, pH 7.4, 37° C.
Setting [13] is: Table 4, comparative compounds of Table 3, fibrin dissolution time extended twice.
[14] abbreviates: Table 4, comparative compounds of Table 3, pH 8.3.
The mark [15] stands for this setting: Table 4, comparative compounds of Table 3, coagulation time extended twice, read-out: Thrombin Fibrinogen (I50).

Counter-ions that a name gives are not always drawn. Like-named read-outs stand apart in the source and are kept apart here.

T1 sequence (P00747 581-810 limits assumed): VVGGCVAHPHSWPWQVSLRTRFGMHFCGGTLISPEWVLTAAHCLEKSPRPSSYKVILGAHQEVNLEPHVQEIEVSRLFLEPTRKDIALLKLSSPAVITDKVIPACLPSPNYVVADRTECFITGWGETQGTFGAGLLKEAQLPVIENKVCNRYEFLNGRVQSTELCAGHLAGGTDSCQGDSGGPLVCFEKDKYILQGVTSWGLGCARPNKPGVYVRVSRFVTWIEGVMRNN
T1 sequence (P00747 97-580 partner limits assumed): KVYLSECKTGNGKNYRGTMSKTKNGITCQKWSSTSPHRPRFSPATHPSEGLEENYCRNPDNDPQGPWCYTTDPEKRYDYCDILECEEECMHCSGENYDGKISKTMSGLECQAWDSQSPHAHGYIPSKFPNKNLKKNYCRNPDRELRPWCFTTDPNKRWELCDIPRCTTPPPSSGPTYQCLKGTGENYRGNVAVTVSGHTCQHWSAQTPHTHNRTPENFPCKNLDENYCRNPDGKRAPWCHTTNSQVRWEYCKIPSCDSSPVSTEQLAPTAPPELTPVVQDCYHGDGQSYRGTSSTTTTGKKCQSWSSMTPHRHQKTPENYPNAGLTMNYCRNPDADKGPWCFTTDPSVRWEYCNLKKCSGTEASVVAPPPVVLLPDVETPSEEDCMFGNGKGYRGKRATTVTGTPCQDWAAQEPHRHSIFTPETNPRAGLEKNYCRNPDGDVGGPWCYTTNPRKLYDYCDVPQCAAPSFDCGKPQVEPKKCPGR
human plasma kallikrein, sequence (P03952 391-638 limits assumed): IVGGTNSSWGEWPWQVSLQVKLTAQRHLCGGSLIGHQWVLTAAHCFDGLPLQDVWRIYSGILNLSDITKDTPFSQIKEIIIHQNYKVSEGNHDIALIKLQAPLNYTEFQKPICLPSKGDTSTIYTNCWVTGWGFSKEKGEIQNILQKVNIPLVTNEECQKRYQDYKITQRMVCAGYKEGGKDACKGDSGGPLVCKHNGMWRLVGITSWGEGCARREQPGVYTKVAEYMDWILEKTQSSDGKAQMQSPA
human plasma kallikrein, sequence (P03952 20-390 partner limits assumed): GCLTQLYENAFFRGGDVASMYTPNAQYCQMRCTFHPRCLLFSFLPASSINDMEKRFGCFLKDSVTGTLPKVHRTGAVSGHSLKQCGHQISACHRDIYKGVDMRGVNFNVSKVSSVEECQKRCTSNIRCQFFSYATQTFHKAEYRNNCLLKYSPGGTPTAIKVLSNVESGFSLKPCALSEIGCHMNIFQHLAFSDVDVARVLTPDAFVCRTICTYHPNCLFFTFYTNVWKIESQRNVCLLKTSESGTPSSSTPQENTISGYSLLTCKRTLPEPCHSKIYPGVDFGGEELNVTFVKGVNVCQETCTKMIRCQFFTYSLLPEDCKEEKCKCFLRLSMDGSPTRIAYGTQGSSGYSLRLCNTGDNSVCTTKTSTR

Regarding `NC[C@H]1CC[C@H](C(=O)N[C@@H](Cc2ccc(OCc3ccccc3)cc2)C(=O)Nc2ccc(S(N)(=O)=O)cc2)CC1` [Compound No. 47, N-(trans-4-aminomethylcyclohexylcarbonyl)-4-benzyloxy-L-phenylalanine 4-sulfamoylanilide hydrochloride], the IC50 in assay [1] is 8.9 µM; in assay [2] (setting [8]), 1 µM; in assay [3] (Table 2, pH 8.3, 37° C.), greater than 400 µM; in assay [4], greater than 200 µM; in assay [5] (setting [9]), 7.5 µM; in assay [6] (setting [10]), 4.5 µM. In addition, the IC50 in assay [7] (setting [11]) worked out at 130 µM.

Turning to `NC[C@H]1CC[C@H](C(=O)N[C@@H](Cc2ccc(OCc3ccccc3)cc2)C(=O)Nc2ccnc(Cl)c2)CC1` [Compound No. 59, N-(trans-4-aminomethylcyclohexylcarbonyl)-4-benzyloxy-L-phenylalanine 4-(2-chloro)pyridylamide hydrochloride], the IC50 in assay [1] was 1.4 µM; in assay [2] (setting [8]), 0.18 µM; in assay [3] (Table 2, pH 8.3, 37° C.), greater than 125 µM; in assay [4] it was greater than 250 µM; in assay [5] (setting [9]), 0.67 µM; in assay [6] (setting [10]), 0.42 µM. Moreover, the IC50 in assay [7] (setting [11]) amounted to 40 µM.

On to `CC1CCC(NC(=O)[C@H](Cc2ccc(OCc3ccccc3)cc2)NC(=O)c2ccc(CN)cc2)CC1C` (stereo partly drawn) [Compound No. 80, N-(4-aminomethylbenzoyl)-4-benzyloxy-L-phenylalanine 3,4-dimethylcyclohexylamide hydrochloride], for which the IC50 in assay [1] was 1.1 µM; in assay [2] (setting [8]), 0.33 µM; in assay [3] (Table 2, pH 8.3, 37° C.) it was greater than 100 µM; in assay [4] it was greater than 50 µM; in assay [5] (setting [9]), 0.45 µM; in assay [6] (setting [10]) it was 17 µM. Further, the IC50 in assay [7] (setting [11]) is greater than 400 µM.

On to `CC(=O)c1ccc(NC(=O)[C@H](Cc2ccc(Oc3ccc([N+](=O)[O-])cc3)cc2)NC(=O)[C@H]2CC[C@H](CN)CC2)cc1` [Compound No. 95, N-(trans-4-aminomethylcyclohexylcarbonyl)-4-(4-nitrophenoxy)-L-phenylalanine 4-acetylanilide hydrochloride], for which the IC50 was 0.63 µM in assay [1]; 0.27 µM in assay [2] (setting [8]); greater than 400 µM in assay [3] (Table 2, pH 8.3, 37° C.); greater than 100 µM in assay [4]; 1.5 µM in assay [5] (setting [9]); 0.14 µM in assay [6] (setting [10]). In addition, the IC50 in assay [7] (setting [11]) worked out at 8 µM.

For the molecule `NCc1ccc(C(=O)N[C@@H](Cc2ccc(OCc3ccccc3)cc2)C(=O)NCc2ccncc2)cc1` [Compound No. 96, N-(4-aminomethylbenzoyl)-4-benzyloxy-L-phenylalanine 4-picolylamide dihydrochloride], the IC50 was 29 µM in assay [1]; 18 µM in assay [2] (setting [8]); greater than 100 µM in assay [3] (Table 2, pH 8.3, 37° C.); greater than 250 µM in assay [4]; 22 µM in assay [5] (setting [9]); 350 µM in assay [6] (setting [10]). The IC50 in assay [7] (setting [11]) was greater than 500 µM.

For `CC(=O)c1ccc(NC(=O)[C@H](Cc2ccc(Oc3ccc([N+](=O)[O-])cn3)cc2)NC(=O)[C@H]2CC[C@H](CN)CC2)cc1` [Compound No. 121, N-(trans-4-aminomethylcyclohexylcarbonyl)-4-(5-nitro-2-pyridyloxy)-L-phenylalanine 4-acetylanilide hydrochloride], the IC50 in assay [1] was 0.95 µM; in assay [2] (setting [8]), 0.43 µM; in assay [3] (Table 2, pH 8.3, 37° C.), 280 µM; in assay [4], greater than 200 µM; in assay [5] (setting [9]), 0.24 µM; in assay [6] (setting [10]), 0.18 µM. Moreover, the IC50 in assay [7] (setting [11]) was found to be 19 µM.

Regarding `CC(=O)c1ccc(NC(=O)[C@H](Cc2ccc(OCc3cccc(C#N)c3)cc2)NC(=O)[C@H]2CC[C@H](CN)CC2)cc1` [Compound No. 122, N-(trans-4-aminomethylcyclohexylcarbonyl)-4-(3-cyanobenzyloxy)-L-phenylalanine 4-acetylanilide hydrochloride], the IC50 is 1.1 µM in assay [1]; 0.31 µM in assay [2] (setting [8]); greater than 200 µM in assay [3] (Table 2, pH 8.3, 37° C.); greater than 50 µM in assay [4]; 1 µM in assay [5] (setting [9]); 0.43 µM in assay [6] (setting [10]). For the same molecule, in assay [7] (setting [11]), the IC50 turned out to be 34 µM.

`NC[C@H]1CC[C@H](C(=O)N[C@@H](Cc2ccc(Oc3cc(Cl)ccc3[N+](=O)[O-])cc2)C(=O)Nc2ccncc2)CC1` [Compound No. 137, N-(trans-4-aminomethylcyclohexylcarbonyl)-4-(3-chloro-6-nitrophenoxy)-L-phenylalanine 4-pyridylamide dihydrochloride]: the IC50 was 0.9 µM in assay [1]; 0.58 µM in assay [2] (setting [8]); greater than 400 µM in assay [3] (Table 2, pH 8.3, 37° C.); greater than 200 µM in assay [4]; 1.2 µM in assay [5] (setting [9]); 0.66 µM in assay [6] (setting [10]). Besides, in assay [7] (setting [11]), the IC50 was 37 µM.

With `NCc1ccc(C(=O)NC(Cc2ccccc2)C(=O)N2CCCCC2)cc1` (stereo not drawn) [Table 3 Compound No. 3, reference compound], the IC50 in assay [1] (setting [12]) is greater than 1000 µM; in assay [2] (setting [13]), greater than 1000 µM; in assay [3] (setting [14]), greater than 1000 µM; in assay [4] (setting [15]), greater than 1000 µM; in assay [5] (Table 4, comparative compounds of Table 3, S-2238 substrate, pH 8.1, read-out: Trypsin S-2238 (I50)) it was greater than 300 µM; in assay [6] (Table 4, comparative compounds of Table 3, S-2302 substrate, pH 7.8, read-out: Plasma Kallikrein S-2302 (I50)), greater than 1000 µM. The IC50 in assay [7] (Table 4, comparative compounds of Table 3, S-2444 substrate, pH 8.8, read-out: Urokinase S-2444 (I50)) was greater than 1000 µM.

Turning to `CC(=O)NC(Cc1ccc([N+](=O)[O-])cc1)C(=O)Nc1ccc([N+](=O)[O-])cc1` (stereo not drawn) [Table 3 Compound No. 4, reference compound], the IC50 was greater than 100 µM in assay [1] (setting [12]); greater than 100 µM in assay [2] (setting [13]); greater than 100 µM in assay [3] (setting [14]); greater than 100 µM in assay [4] (setting [15]); greater than 150 µM in assay [5]; greater than 100 µM in assay [6]. This molecule also returned an IC50 in assay [7] greater than 100 µM.

With `CSc1ccc(NC(=O)[C@H](Cc2ccc(OCc3ccccc3)cc2)NC(=O)[C@H]2CC[C@H](CN)CC2)cc1` [compound 29], the IC50 in assay [1] is 3.1 µM; in assay [2] (setting [8]) it was 0.35 µM; in assay [3] (Table 2, pH 8.3, 37° C.), greater than 50 µM; in assay [4] it was greater than 25 µM; in assay [5] (setting [9]) it was 3.1 µM; in assay [6] (setting [10]) it was 1.1 µM. In addition, the IC50 in assay [7] (setting [11]) was 330 µM.

As for `CC(=O)c1ccc(NC(=O)[C@H](Cc2ccc(OCC(=O)c3ccccc3)cc2)NC(=O)[C@H]2CC[C@H](CN)CC2)cc1` [compound 30], the IC50 in assay [1] was 1.4 µM; in assay [2] (setting [8]) it was 0.95 µM; in assay [3] (Table 2, pH 8.3, 37° C.), 280 µM; in assay [4], greater than 50 µM; in assay [5] (setting [9]) it was 1 µM; in assay [6] (setting [10]), 0.37 µM. The IC50 in assay [7] (setting [11]) amounted to 80 µM.

These data come from patent US4895842A, “Phenylalanine derivative and proteinase inhibitor” (Shosuke Okamoto, priority 1985, dated 1990).
